Experimental data reported in paper PMC12514245, “Impaired migration and lung invasion of human melanoma by a novel small molecule targeting the transmembrane domain of death receptor p75^NTR” (EMBO Molecular Medicine, 2025).
Where “and” joins values, the source holds several entries; their conditions need not be identical. Identical values can stand only once.

Experiments:
A875 NT cells [1] = experiment: Filopodia per cell (phalloidin staining), A875 NT; assay type: cell-based, human
Experimental: (§1) For assessment of actin filaments, A875 cells were plated on glass coverslips in 24-well plate at a confluency of 3 × 10^4 cells/well. One day after plating, the cells were treated with 1 μM or 5 μM Np75-4A22 and NGF (100 ng/ml) or PBS for 24 h. Cells were fixed in 4% paraformaldehyde, permeabilized in 0.1% Triton-X-100, stained with Phalloidin-iFluor 488 (Abcam) at 1:2000 dilution and DAPI for 1 h. Coverslips were mounted and visualized in a laser confocal microscope.

[2] = molecular target: T1, fascin/p75^NTR interaction (Homo sapiens, UniProt P08138); experiment: Co-immunoprecipitation of fascin with p75NTR in A875 cells; assay type: cell-based; conditions: NGF, experiments 1-3
T1 construct: endogenous in cells; host or cells: A875-NT (and A875 sh-p75NTR knock-down control)
T1 sequence (P08138 29-427): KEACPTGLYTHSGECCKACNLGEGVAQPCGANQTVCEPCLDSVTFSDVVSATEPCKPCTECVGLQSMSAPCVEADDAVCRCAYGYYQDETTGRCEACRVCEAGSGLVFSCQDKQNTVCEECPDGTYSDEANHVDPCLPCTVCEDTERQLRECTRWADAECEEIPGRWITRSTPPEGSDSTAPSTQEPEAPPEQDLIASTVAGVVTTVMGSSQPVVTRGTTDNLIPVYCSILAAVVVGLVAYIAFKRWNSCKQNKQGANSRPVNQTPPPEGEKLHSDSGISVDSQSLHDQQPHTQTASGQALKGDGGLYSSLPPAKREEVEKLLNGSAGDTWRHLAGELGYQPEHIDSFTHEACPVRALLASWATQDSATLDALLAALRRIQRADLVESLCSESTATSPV
Experimental: For co-immunoprecipitation analysis of p75^NTR/fascin interactions, A875 sh-p75^NTR and A875-NT cells were plated in a 10 cm tissue culture dish at a confluency of 3 × 10^6 cells/dish in normal growth media. Twenty-four hours after plating, the cells were treated with 1 μM 4A22 and NGF (100 ng/ml) for 12 h prior to harvest and lysis in lysis buffer (50 mM Tris/HCl pH 7.5, 1 mM EDTA, 270 mM Sucrose, 1% (v/v) Triton X-100, 0.1% (v/v) 2-mercaptoethanol and 60 mM n-Octyl-β-D glucopyranoside) containing protease inhibitor cocktail. The cellular extracts were then centrifuged at 4 °C top speed on a benchtop centrifuge for 1 min and the supernatant was collected. For immunoprecipitation, A875 cell extracts were incubated for 16 h at 4 °C on a rotating wheel with 0.8 μg of anti-p75^NTR antibody (ANT-007, Alomone) and then incubated with Sepharose protein-G beads (GE Healthcare). The beads were collected by brief centrifugation (2 min, 2500 rpm, 4 °C), washed three times with 1 ml of Wash Buffer (with composition same as the lysis buffer). After the last wash, pelleted beads were aspirated off the wash buffer followed by addition of Laemmli sample buffer and analysis by SDS–PAGE followed by Western Blot using anti-fascin antibody (MA5-11483, Invitrogen).

A875 shp75 cells [3] = experiment: Filopodia per cell (phalloidin staining), A875 shp75; assay type: cell-based, human; conditions: for filopodia per cell (well mean): A875 shp75 cells, wells 1-4
Experimental: as §1

A875 shp75 cells [4] = experiment: Boyden chamber chemotaxis assay, A875 shp75; assay type: cell-based, human; conditions: NGF as chemoattractant
[5] = tested on: fascin in Triton-insoluble fraction of A875 NT cells; experiment: Detergent-insolubility assay of fascin, A875 NT; assay type: cell-based, human; conditions: NGF; insoluble/total fascin, n1-n3
Experimental: A single cell suspension was obtained by trypsinization followed by centrifugation and detergent extraction with lysis buffer (with 0.5% Triton X-100). Then, immediately centrifuged at 8700 g for 3 min. The resulting pellets (containing the Triton X-100-resistant proteins) were suspended in lysis buffer without Triton X-100. In parallel, cells were centrifuged and then directly suspended in lysis buffer. The Triton X-100- resistant proteins and total cell lysates were analyzed by SDS–PAGE and Western blotting with anti-fascin antibody.

WM115 cells = experiment: Boyden chamber chemotaxis assay, WM115; assay type: cell-based, human; conditions: 100 ng/ml NGF
Experimental: For Boyden chamber assay, Corning® BioCoat™ Matrigel® Invasion Chambers 8.0 µm PET Membrane were used (cat. no. 354480). A875 NT or WM115 cells were serum-starved for 16 h and then seeded at 60,000 cells per well in serum-free media under different conditions, including DMSO (vehicle) or small molecules Div17E5 or Np75-4A22 at different concentrations to the top chamber of the Matrigel-coated trans-well chamber. The pan-caspase inhibitor Q_VD_poH (at 5 µM) was also introduced in the top chamber in some experiments. Two different chemoattractants, NGF (at 50 ng/ml or 100 ng/ml as indicated) or 10% FBS were added to the bottom chamber. Assays were carried out for 8 h after which filters were fixed in 4% PFA and stained with DAPI. Cells that had remained on the top of the filter were gently scrapped away with a cotton tip. The filter lower side was imaged on an inverted fluorescence microscope and counted using ImageJ software (NIH).

A875 NT cells [6] = experiment: Wound healing cell motility assay, A875 NT; assay type: cell-based, human; conditions: for Wound area (Fold), Mean / Wound area (Fold), individual replicates: 10uM
Experimental: For wound healing assay, cells were grown until confluency and subjected to a wound across the cell mono-layer. Cells were then incubated with serum-free media either with DMSO or a small molecule (with or without 5 µM Q_VD_poH) and imaged at specific time-points. Cell migration is reflected as fold change in wound area over time.

AS19 E. coli = experiment: Bacterial toxicity (OD630) in the AraTM assay; assay type: cell-based; conditions: compared with Div17E5
p75^NTR TMD = molecular target: T2, p75^NTR TMD (Homo sapiens, UniProt P08138); experiment: AraTM assay, wild-type p75NTR TMD (GFP/OD630); assay type: cell-based; conditions: structure-activity comparison
T2 sequence (P08138 250-275 limits assumed): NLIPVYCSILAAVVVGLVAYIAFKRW

[7] = tested on: neurons and melanoma cells; parameters: method as in Goh et al, 2018; conditions: dependent on p75NTR and JNK activity; ref Goh et al, 2018; cited from earlier work
melanoma tumor = tested on: melanoma tumor; parameters: method as in Goh et al, 2018; conditions: ref Goh et al, 2018; cited from earlier work

NGF: nerve growth factor, neurotrophin ligand of p75NTR, used as chemoattractant
Filopodia per cell, mean of experiment (A875 NT cells [1]; 100 ng/ml NGF alone, A875 NT, EXP1-EXP3): 50.0863 and 44.7441 and 46.2718
Filopodia per cell, mean of three experiments (A875 NT cells [1]; 100 ng/ml NGF alone, A875 NT, mean of EXP1-3): 47.0341
Filopodia per cell, mean of well (A875 NT cells [1]; 100 ng/ml NGF alone, A875 NT, well mean): 36.2857 and 52.7857 and 51.5714 and 47.2222 and 38.6667 and 55.1429 and 44.0556
Filopodia per cell, mean of the well (A875 NT cells [1]; 100 ng/ml NGF, EXP1 NT, well mean): 59.8571 and 51.381 and 46.8571 and 42.25
FASCIN/P75 [2]: 0.1943 and 0.2161 and 0.2851
FASCIN/P75 Fold change ([2]; relative to UT): 1.97 and 2.116 and 1.36
filopodia per cell (mean of 3 experiments) (A875 shp75 cells [3]; A875 shp75, 100ng/ml NGF): 33.6544
filopodia per cell (mean of one experiment) (A875 shp75 cells [3]; A875 shp75, 100ng/ml NGF, EXP1-EXP3): 32.2411 and 36.1597 and 32.5625
filopodia per cell (well mean) (A875 shp75 cells [3]; EXP1, 100 ng/ml NGF): 25.2143 and 35.5 and 37.1667 and 31.0833
filopodia per cell (well mean) (A875 shp75 cells [3]; EXP2, 100 ng/ml NGF): 37 and 30.3889 and 32.6667 and 44.5833
Fold change (invading cells), n1-n4 (A875 shp75 cells [4]): 0.89 Fold and 1.06 Fold and 1.42 Fold and 1.05 Fold
Fold change (invading cells), Mean (A875 shp75 cells [4]; N=4): 1.110 Fold
Fold change (compared to untreated cells) [5]: 3.421 and 2.292 and 2.425
values normalized to vehicle, mean (Figure 6E) (WM115 cells; mean of EXP1-3): 1.5693
values normalized to vehicle (Figure 6E) (WM115 cells; single experiments EXP1-3): 1.456 and 1.588 and 1.664

COc1ccc(-c2cncc(Nc3ccc([N+](=O)[O-])cc3)n2)cc1 [MS_18]
wound healing assay, comparison of Div17E5, MS_18 and MS_63 (A875 NT cells [6]; 10 µM): lower potency
Wound area (Fold), Mean (A875 NT cells [6]; 0 hours): 1 Fold
Wound area (Fold), individual replicates (A875 NT cells [6]; 0 hours): 1.000 Fold
Wound area (Fold), Mean (A875 NT cells [6]; 3 hours): 0.941 Fold
Wound area (Fold), individual replicates (A875 NT cells [6]; 3 hours): 0.922 Fold and 0.959 Fold
Wound area (Fold), Mean (A875 NT cells [6]; 6 hours): 0.91 Fold
Wound area (Fold), individual replicates (A875 NT cells [6]; 6 hours): 0.89 Fold and 0.929 Fold
Wound area (Fold), Mean (A875 NT cells [6]; 9 hours): 0.867 Fold
Wound area (Fold), individual replicates (A875 NT cells [6]; 9 hours): 0.834 Fold and 0.901 Fold
Wound area (Fold), Mean (A875 NT cells [6]; 12 hours): 0.851 Fold
Wound area (Fold), individual replicates (A875 NT cells [6]; 12 hours): 0.803 Fold and 0.899 Fold
Wound area (Fold), Mean (A875 NT cells [6]; 15 hours): 0.791 Fold
Wound area (Fold), individual replicates (A875 NT cells [6]; 15 hours): 0.728 Fold and 0.855 Fold
Wound area (Fold), Mean (A875 NT cells [6]; 18 hours): 0.817 Fold
Wound area (Fold), individual replicates (A875 NT cells [6]; 18 hours): 0.79 Fold and 0.845 Fold
Wound area (Fold), Mean (A875 NT cells [6]; 21 hours): 0.775 Fold
Wound area (Fold), individual replicates (A875 NT cells [6]; 21 hours): 0.722 Fold and 0.827 Fold
Wound area (Fold), Mean (A875 NT cells [6]; 24 hours): 0.737 Fold
Wound area (Fold), individual replicates (A875 NT cells [6]; 24 hours): 0.692 Fold and 0.783 Fold
bacterial toxicity, as assessed by OD630 (AS19 E. coli): somewhat lower bacterial toxicity
activity in the AraTM assay (p75^NTR TMD): MS_18 more potent than Np75-3A01, -3A02

O=C(/C=C/c1cccnc1)c1ccccc1O [NSC49652]
apoptotic cell death [7]: triggered apoptotic cell death
melanoma tumor growth (melanoma tumor): inhibited melanoma tumor growth
